Laboratory results published in paper PMC4965013, “Open Source Drug Discovery with the Malaria Box Compound Collection for Neglected Diseases and Beyond” (PLoS Pathogens, 2016).
pEC50, pIC50: −log10 of the molar value. Read-outs that look alike come from different tables or passages of the source.

How the values were obtained:
[1] = test system: P. falciparum 3D7 trophozoites; test: Metabolomic fingerprint profiling LC-MS; assay type: cell-based, Plasmodium falciparum; set-up: UDP-D-glucose / ADP-D-glucose: unit not given here; settings: for Acetyllysine / N-acetyl-L-ornithine / N-carbamoyl-L-aspartate / NADPH / dAMP / dCMP / dTDP / dTMP / dTTP / dihydroorotate / orotate / DLH / DLS/SDL/SID / PD / PEE / PVNF / 3-phosphoglycerate / ADP-D-glucose / ATP / CDP / D-sedoheptulose-1/7-phosphate / FAD / GMP / NAD+ / NADP+ / Octoluse Bisphosphate / Pyroglutamic acid / UDP-D-glucose / UDP-D-glucuronate / UDP-N-acetyl-glucosamine / UDP / UMP / UTP / a-ketoglutarate / citrate/isocitrate / cytidine / dATP / dGMP/AMP / fumarate / glucose-1/6-phosphate / glycerate / guanine / guanosine / hypoxanthine / indole / inosine / nicotinate / ornithine / phosphoenolpyruvate / pyruvate / ribose-phosphate / sarcosine/alanine / sn-glycerol-3-phosphate / succinate/methylmalonic acid / uridine / xanthosine: S2 Table Metabolomics; for Acetyllysine: metabolite Acetyllysine; for N-acetyl-L-ornithine: metabolite N-acetyl-L-ornithine; for N-carbamoyl-L-aspartate: metabolite N-carbamoyl-L-aspartate; for NADPH: metabolite NADPH; for dAMP: metabolite dAMP; for dCMP: metabolite dCMP; for dTDP: metabolite dTDP; for dTMP: metabolite dTMP; for dTTP: metabolite dTTP; for dihydroorotate: metabolite dihydroorotate; for orotate: metabolite orotate; for DLH: peptide DLH; for DLS/SDL/SID: peptide DLS/SDL/SID; for PD: peptide PD; for PEE: peptide PEE; for PVNF: peptide PVNF; for 3-phosphoglycerate: metabolite 3-phosphoglycerate; for ADP-D-glucose: metabolite ADP-D-glucose; for ATP: metabolite ATP; for CDP: metabolite CDP; for CDP / D-sedoheptulose-1/7-phosphate / GMP / Octoluse Bisphosphate / UDP / UMP / UTP / citrate/isocitrate / dGMP/AMP / fumarate / glucose-1/6-phosphate / glycerate / guanine / guanosine / inosine / pyruvate / sarcosine/alanine / succinate/methylmalonic acid / uridine / xanthosine: change in metabolite level after compound treatment; for D-sedoheptulose-1/7-phosphate: metabolite D-sedoheptulose-1/7-phosphate; for FAD: metabolite FAD; for GMP: metabolite GMP; for NAD+: metabolite NAD+; for NADP+: metabolite NADP+; for Octoluse Bisphosphate: metabolite Octoluse Bisphosphate; for Pyroglutamic acid: metabolite Pyroglutamic acid; for UDP-D-glucose: metabolite UDP-D-glucose; for UDP-D-glucuronate: metabolite UDP-D-glucuronate; for UDP-N-acetyl-glucosamine: metabolite UDP-N-acetyl-glucosamine; for UDP: metabolite UDP; for UMP: metabolite UMP; for UTP: metabolite UTP; for a-ketoglutarate: metabolite a-ketoglutarate; for citrate/isocitrate: metabolite citrate/isocitrate; for cytidine: metabolite cytidine; for dATP: metabolite dATP; for dGMP/AMP: metabolite dGMP/AMP; for fumarate: metabolite fumarate; for glucose-1/6-phosphate: metabolite glucose-1/6-phosphate; for glycerate: metabolite glycerate; for guanine: metabolite guanine; for guanosine: metabolite guanosine; for hypoxanthine: metabolite hypoxanthine; for indole: metabolite indole; for inosine: metabolite inosine; for 2_3-Diphosphoglyceric acid / 4-phosphopantothenate / 6-phospho-D-gluconate / FMN / IMP / Pyrophosphate / Sedoheptoluse bisphosphate / cyclic-AMP / glutathione disulfide / lactate / myo-inositol: metabolite level change after treatment; for nicotinate: metabolite nicotinate; for ornithine: metabolite ornithine; for phosphoenolpyruvate: metabolite phosphoenolpyruvate; for pyruvate: metabolite pyruvate; for ribose-phosphate: metabolite ribose-phosphate; for sarcosine/alanine: metabolite sarcosine/alanine; for sn-glycerol-3-phosphate: metabolite sn-glycerol-3-phosphate; for succinate/methylmalonic acid: metabolite succinate/methylmalonic acid; for uridine: metabolite uridine; for xanthosine: metabolite xanthosine
[2] = test system: P. falciparum; test: EC50 listed in S2 Table Metabolomics (used to set the concentration tested); assay type: cell-based; settings: Plasmodium falciparum; EC50 used for Factor_XEC50 in metabolomics; read-out: EC50_nM
[3] = test system: P. falciparum 3D7; test: [3H]-hypoxanthine growth inhibition, modified HCO3- or O2; assay type: cell-based; settings: for pIC50: Plasmodium falciparum

Work on `Oc1ccccc1CNCC12CC3CC(CC(C3)C1)C2` [MMV020788] yielded an Acetyllysine [1] of -2.885, a N-acetyl-L-ornithine [1] of -2.954 and a N-carbamoyl-L-aspartate [1] of -1.526. For the same molecule, the NADPH [1] was 0.03625, the dAMP [1] was 0.309 and the dCMP [1] was -0.3685. It also gave a dTDP [1] of -0.06212, a dTMP [1] of -0.1581 and a dTTP [1] of -0.254. For the same molecule, the dihydroorotate [1] was -1.002, the orotate [1] was -1.435 and the DLH [1] was -2.982. For the same molecule, the DLS/SDL/SID [1] was -2.352, the PD [1] was -3.15 and the PEE [1] was -2.856. For the same molecule, the PVNF [1] was -2.845, the 3-phosphoglycerate [1] was 0.739 and the ADP-D-glucose [1] was -0.1615. For the same molecule, the ATP [1] was -0.008574, the CDP [1] was 0.1968 and the D-sedoheptulose-1/7-phosphate [1] was -0.6783. The FAD [1] was -0.02526, the GMP [1] was -0.06975 and the “NAD+” value [1] was -0.1588. The “NADP+” value [1] was -0.008021, the “Octoluse Bisphosphate” value [1] was -0.4633 and the Pyroglutamic acid [1] was -0.07383. It also gave a UDP-D-glucose [1] of 0.01367, a UDP-D-glucuronate [1] of -0.09612 and a UDP-N-acetyl-glucosamine [1] of -0.01836. The UDP [1] was -0.3321, the UMP [1] was -0.241 and the UTP [1] was -0.2582. The a-ketoglutarate [1] was -0.5092, the citrate/isocitrate [1] was -0.2786 and the cytidine [1] was 0.02539. For the same molecule, the dATP [1] was -0.1887, the dGMP/AMP [1] was 0.3187 and the fumarate [1] was -0.7339. It also gave a glucose-1/6-phosphate [1] of -0.008522, a glycerate [1] of -0.4973 and a guanine [1] of -0.3533. It also gave a guanosine [1] of -0.149, a hypoxanthine [1] of -0.5956 and an indole [1] of -0.4443. For the same molecule, the inosine [1] was -0.3499, the 2_3-Diphosphoglyceric acid [1] was 0.3339 and the 4-phosphopantothenate [1] was -0.308. It also gave a 6-phospho-D-gluconate [1] of 0.001521, an FMN [1] of -0.2331 and an IMP [1] of -0.5843. For the same molecule, the Pyrophosphate [1] was 0.1188, the Sedoheptoluse bisphosphate [1] was -0.1032 and the cyclic-AMP [1] was -0.6828. It also gave a glutathione disulfide [1] of -0.3605, a lactate [1] of -0.4043 and a myo-inositol [1] of -0.5298. The nicotinate [1] was -0.1476, the ornithine [1] was -0.2765 and the phosphoenolpyruvate [1] was 0.5824. The pyruvate [1] was 0.6752, the ribose-phosphate [1] was 0.658 and the sarcosine/alanine [1] was -1.087. It also gave a sn-glycerol-3-phosphate [1] of 0.6534, a succinate/methylmalonic acid [1] of 0.06183 and a uridine [1] of -0.2427. For the same molecule, the xanthosine [1] was -0.4659, the pEC50 [2] was 7.65 and the “fold change (IC50normal/ IC50hypoxia)” value [3] was 2.2. For the same molecule, the pIC50 ([3]; 3D7, read-out: P. falciparum 3D7 IC50 1% O2, 1% O2 hypoxia) was 7.20 and the pIC50 ([3]; 3D7, read-out: P. falciparum 3D7 IC50 5% O2) was 6.87.
In the case of `Cc1cccc(Nc2nc(N)c3ccccc3n2)c1` [MMV019110], the Acetyllysine [1] was -0.7861, the N-acetyl-L-ornithine [1] was -0.3066 and the N-carbamoyl-L-aspartate [1] was 0.8718. For the same molecule, the NADPH [1] was 1.0636, the dAMP [1] was 0.1705 and the dCMP [1] was -1.068. It also gave a dTDP [1] of -0.2853, a dTMP [1] of -0.4806 and a dTTP [1] of -0.142. It also gave a dihydroorotate [1] of 1.069, an orotate [1] of -0.7263 and a DLH [1] of -1.2334. The DLS/SDL/SID [1] was -0.8825, the PD [1] was -0.6502 and the PEE [1] was -0.294. It also gave a PVNF [1] of -0.8541, a 3-phosphoglycerate [1] of 0.2769 and an ADP-D-glucose [1] of 0.08672. For the same molecule, the ATP [1] was 0.01278, the CDP [1] was -0.4413 and the D-sedoheptulose-1/7-phosphate [1] was -0.5631. For the same molecule, the FAD [1] was -0.04154, the GMP [1] was 0.0758 and the “NAD+” value [1] was -0.03841. The “NADP+” value [1] was 0.1589, the “Octoluse Bisphosphate” value [1] was -0.09051 and the Pyroglutamic acid [1] was -0.4571. The UDP-D-glucose [1] was -0.005349, the UDP-D-glucuronate [1] was 0.1448 and the UDP-N-acetyl-glucosamine [1] was -0.09963. The UDP [1] was -0.5337, the UMP [1] was -0.1391 and the UTP [1] was -0.1864. The a-ketoglutarate [1] was -0.9521, the citrate/isocitrate [1] was -0.8432 and the cytidine [1] was 0.1554. It also gave a dATP [1] of -0.04411, a dGMP/AMP [1] of 0.02273 and a fumarate [1] of -0.3633. For the same molecule, the glucose-1/6-phosphate [1] was -0.2644, the glycerate [1] was -1.224 and the guanine [1] was -1.026. The guanosine [1] was -2.158, the hypoxanthine [1] was -0.00849 and the indole [1] was -0.09763. The inosine [1] was -0.6039, the 2_3-Diphosphoglyceric acid [1] was -0.1372 and the 4-phosphopantothenate [1] was -0.5707. It also gave a 6-phospho-D-gluconate [1] of -0.1735, an FMN [1] of 0.07582 and an IMP [1] of -0.3382. The Pyrophosphate [1] was -0.02007, the Sedoheptoluse bisphosphate [1] was -0.1834 and the cyclic-AMP [1] was -0.2741. It also gave a glutathione disulfide [1] of -0.5227, a lactate [1] of -1.008 and a myo-inositol [1] of -1.363. For the same molecule, the nicotinate [1] was -1.278, the ornithine [1] was 0.0513 and the phosphoenolpyruvate [1] was 0.03081. For the same molecule, the pyruvate [1] was -1.488, the ribose-phosphate [1] was -0.08015 and the sarcosine/alanine [1] was -0.6413. It also gave a sn-glycerol-3-phosphate [1] of -0.02952, a succinate/methylmalonic acid [1] of -0.4318 and a uridine [1] of -1.131. The xanthosine [1] was -0.9126 and the pEC50 [2] was 6.40.
`CC1CN(C(=O)c2sc3ccccc3c2Cl)CC(C)O1` (stereo not drawn) [MMV020492] was tested, and the Acetyllysine [1] was -0.0147, the N-acetyl-L-ornithine [1] was -0.05191 and the N-carbamoyl-L-aspartate [1] was 0.1461. It also gave an NADPH [1] of 1.076, a dAMP [1] of 0.05557 and a dCMP [1] of 0.1257. It also gave a dTDP [1] of 0.2505, a dTMP [1] of 0.3742 and a dTTP [1] of 0.08279. It also gave a dihydroorotate [1] of 0.2809, an orotate [1] of 0.03682 and a DLH [1] of 0.1005. The DLS/SDL/SID [1] was 0.08855, the PD [1] was 0.1297 and the PEE [1] was 0.04353. For the same molecule, the PVNF [1] was 0.1047, the 3-phosphoglycerate [1] was 0.09132 and the ADP-D-glucose [1] was 0.03984. For the same molecule, the ATP [1] was 0.0738, the CDP [1] was 0.1835 and the D-sedoheptulose-1/7-phosphate [1] was 0.08985. The FAD [1] was 0.03625, the GMP [1] was 0.3386 and the “NAD+” value [1] was 0.04927. The “NADP+” value [1] was 0.004356, the “Octoluse Bisphosphate” value [1] was 0.06954 and the Pyroglutamic acid [1] was 0.3822. It also gave a UDP-D-glucose [1] of 0.04537, a UDP-D-glucuronate [1] of -0.02953 and a UDP-N-acetyl-glucosamine [1] of 0.08846. The UDP [1] was 0.2013, the UMP [1] was 0.2191 and the UTP [1] was 0.01852. The a-ketoglutarate [1] was 0.02481, the citrate/isocitrate [1] was -0.02888 and the cytidine [1] was -0.05556. The dATP [1] was -0.009271, the dGMP/AMP [1] was 0.09845 and the fumarate [1] was 0.08721. The glucose-1/6-phosphate [1] was -0.03526, the glycerate [1] was 0.2426 and the guanine [1] was 0.0471. It also gave a guanosine [1] of 0.114, a hypoxanthine [1] of -0.07881 and an indole [1] of 0.1523. For the same molecule, the inosine [1] was -0.03708, the 2_3-Diphosphoglyceric acid [1] was 0.1949 and the 4-phosphopantothenate [1] was 0.1246. The 6-phospho-D-gluconate [1] was 0.07439, the FMN [1] was 0.2041 and the IMP [1] was -0.02839. For the same molecule, the Pyrophosphate [1] was 0.1402, the Sedoheptoluse bisphosphate [1] was 0.05967 and the cyclic-AMP [1] was 0.07392. It also gave a glutathione disulfide [1] of 0.1287, a lactate [1] of 0.06153 and a myo-inositol [1] of 0.04445. For the same molecule, the nicotinate [1] was 0.03208, the ornithine [1] was -0.1593 and the phosphoenolpyruvate [1] was 0.09247. It also gave a pyruvate [1] of -0.02843, a ribose-phosphate [1] of -0.3604 and a sarcosine/alanine [1] of 0.3511. The sn-glycerol-3-phosphate [1] was 0.4063, the succinate/methylmalonic acid [1] was 0.003908 and the uridine [1] was 0.1407. It also gave a xanthosine [1] of 0.3607 and a pEC50 [2] of 7.59.
